For 36 compounds, EC50 results are on record in US10544141B2, “Derivatives and methods of treating hepatitis B infections” (Novira Therapeutics, Inc., priority 2014, dated 2020).

SMILES strings stand for the structures.

In the assay the test system is HBV. Description: HBV replication inhibition assay (BDNA assay) in HepG2.2.15 cells. In kind it is cell-based. The conditions noted are these: Hepatitis B virus, HepG2.2.15, 144 h, 6 days treatment, encapsidated HBV DNA in supernatant by branched DNA QuantiGene assay. An excerpt:
HBV replication inhibition by the compounds of this invention could be determined in cells infected or transfected with HBV, or cells with stably integrated HBV, such as HepG2.2.15 cells (Sells et al. 1987). In this example, HepG2.2.15 cells were maintained in cell culture medium containing 10% fetal bovine serum (FBS), Geneticin, L-glutamine, penicillin and streptomycin. HepG2.2.15 cells could be seeded in 96-well plates at a density of 40,000 cells/well and be treated with serially diluted compounds at a final DMSO concentration of 0.5% either alone or in combination by adding drugs in a checker box format. Cells were incubated with compounds for three days, after which medium was removed and fresh medium containing compounds was added to cells and incubated for another three days. At day 6, supernatant was removed and treated with DNase at 37° C. for 60 minutes, followed by enzyme inactivation at 75° C. for 15 minutes. Encapsidated HBV DNA was released from the virions and covalently linked HBV polymerase by incubating in lysis buffer (Affymetrix QS0010) containing 2.5 μg proteinase K at 50° C. for 40 minutes. HBV DNA was denatured by addition of 0.2 M NaOH and detected using a branched DNA (BDNA) QuantiGene assay kit according to manufacturer recommendation (Affymetrix). HBV DNA levels could also be quantified using qPCR, based on amplification of encapsidated HBV DNA extraction with QuickExtraction Solution (Epicentre Biotechnologies) and amplification of HBV DNA using HBV specific PCR probes that can hybridize to HBV DNA and a fluorescently labeled probe for quantitation. In addition, cell viability of HepG2.2.15 cells incubated with test compounds alone or in combination was determined by using CellTitre-Glo reagent according to the manufacturer protocol (Promega). The mean background signal from wells containing only culture medium was subtracted from all other samples, and percent inhibition at each compound concentration was calculated by normalizing to signals from HepG2.2.15 cells treated with 0.5% DMSO using equation E1. % inhibition=(DMSOave−Xi)/DMSOave×100% E1: where DMSOave is the mean signal calculated from the wells that were treated with DMSO control (0% inhibition control) and Xi is the signal measured from the individual wells. EC50 values, effective concentrations that achieved 50% inhibitory effect, were determined by non-linear fitting using Graphpad Prism software (San Diego, Calif.) and equation E2 Y=Y min+(Y max−Y min)/(1+10(Log EC50−X)×HillSlope) E2: […]
where Y represents percent inhibition values and X represents the logarithm of compound concentrations.
Selected compounds of the invention were assayed in the HBV replication assay (BDNA assay), as described above and a representative group of these active compounds is shown in Table 3. […] In Table 3, “A” represents 0.01<EC50<0.10; “B” represents 0.10≤EC50<0.50; and “C” represents 0.50≤EC50<1.0; (‘+’ indicates >50% activity at 10 μM).
In the case of `O=C(Nc1cccc(Cl)c1)N1CCc2[nH]nc(C34CCCC3C4)c2C1` (stereo not drawn) [Compound 546, 3-(1-bicyclo[3.1.0]hexanyl)-N-(3-chlorophenyl)-1,4,6,7-tetrahydropyrazolo[4,3-c]pyridine-5-carboxamide], the EC50 was 10 to 100 nM.

Consider `C=C(C)c1n[nH]c2c1CN(C(=O)Nc1ccnc(Cl)c1F)CC2` [Compound 547], for which the EC50 was 100 to 500 nM. The value for `C=C(C)c1n[nH]c2c1CN(C(=O)Nc1cccc(Br)c1F)CC2` [Compound 548] was 10 to 100 nM. For `C=C(C)c1n[nH]c2c1CN(C(=O)Nc1cccc(C)c1)CC2` [Compound 549, 3-isopropenyl-N-(m-tolyl)-1,4,6,7-tetrahydropyrazolo[4,3-c]pyridine-5-carboxamide] the value was 100 to 500 nM; for `O=C(Nc1cccc(Cl)c1)N1CCc2[nH]nc(C3CCC3)c2C1` [Compound 554, N-(3-chlorophenyl)-3-cyclobutyl-1,4,6,7-tetrahydropyrazolo[4,3-c]pyridine-5-carboxamide], 10 to 100 nM; for `CCC(C)(C)c1n[nH]c2c1CN(C(=O)Nc1cccc(Cl)c1)CC2` [Compound 604, N-(3-chlorophenyl)-3-(1,1-dimethylpropyl)-1,4,6,7-tetrahydropyrazolo [4,3-c]pyridine-5-carboxamide], 100 to 500 nM.

For the compound `CCCC(F)(F)c1n[nH]c2c1CN(C(=O)Nc1cccc(Cl)c1)CC2` [Compound 642, N-(3-chlorophenyl)-3-(1,1-difluorobutyl)-1,4,6,7-tetrahydropyrazolo[4,3-c]pyridine-5-carboxamide], the EC50 lay within 10 to 100 nM. As for `CCCc1n[nH]c2c1CN(C(=O)Nc1cccc(Cl)c1)CC2` [Compound 644, N-(3-chlorophenyl)-3-propyl-1,4,6,7-tetrahydropyrazolo[4,3-c]pyridine-5-carboxamide], the EC50 was 100 to 500 nM. For `O=C(Nc1ccnc(Cl)c1F)N1CCc2[nH]nc(C3CCC3)c2C1` [Compound 660] the value was 100 to 500 nM; for `Cc1cccc(NC(=O)N2CCc3[nH]nc(C4CCC4)c3C2)c1` [Compound 661], 100 to 500 nM; for `O=C(Nc1cccc(Br)c1F)N1CCc2[nH]nc(C3CCC3)c2C1` [Compound 662], 10 to 100 nM.

Turning to `O=C(Nc1cccc(Br)c1)N1CCc2[nH]nc(C3CCC3)c2C1` [Compound 663], the EC50 was in the range of 10 to 100 nM.

For `O=C(Nc1ccnc(Br)c1F)N1CCc2[nH]nc(C3CCC3)c2C1` [Compound 664], the EC50 lay within 100 to 500 nM.

In the case of `O=C(Nc1ccc(F)c(Cl)c1)N1CCc2[nH]nc(C3CCC3)c2C1` [Compound 665], the EC50 is 10 to 100 nM. For the compound `Cc1cc(NC(=O)N2CCc3[nH]nc(C4CCC4)c3C2)ccc1F` [Compound 666], the EC50 is 10 to 100 nM.

With `O=C(Nc1ccc(F)c(Br)c1)N1CCc2[nH]nc(C3CCC3)c2C1` [Compound 667], the EC50 fell in the range of 10 to 100 nM. For `N#Cc1cc(NC(=O)N2CCc3[nH]nc(C4CCC4)c3C2)ccc1F` [Compound 668] the value was 10 to 100 nM; for `O=C(Nc1ccc(F)c(F)c1)N1CCc2[nH]nc(C3CCC3)c2C1` [Compound 669], 100 to 500 nM; for `O=C(Nc1cccc(Cl)c1)N1CCc2[nH]nc(C3CC=CC3)c2C1` [Compound 693, N-(3-chlorophenyl)-3-cyclopent-3-en-1-yl-1,4,6,7-tetrahydropyrazolo[4,3-c]pyridine-5-carboxamide], 10 to 100 nM. Regarding `CC1(c2n[nH]c3c2CN(C(=O)Nc2cccc(Cl)c2)CC3)CCC1` [Compound 694, N-(3-chlorophenyl)-3-(1-methylcyclobutyl)-1,4,6,7-tetrahydropyrazolo[4,3-c]pyridine-5-carboxamide], the EC50 was 10 to 100 nM.

Turning to `CCC(F)(F)c1n[nH]c2c1CN(C(=O)Nc1cccc(Cl)c1)CC2` [Compound 696, N-(3-chlorophenyl)-3-(1,1-difluoropropyl)-1,4,6,7-tetra hydropyrazolo[4,3-c]pyridine-5-carboxamide], the EC50 lay in the range of 100 to 500 nM. As for `O=C(Nc1cccc(Cl)c1)N1CCc2[nH]nc(C3(C(F)(F)F)CC3)c2C1` [Compound 700, N-(3-chlorophenyl)-3-[1-(trifluoromethyl)cyclopropyl]-1,4,6,7-tetrahydropyrazolo[4,3-c]pyridine-5-carboxamide], the EC50 was in the range of 100 to 500 nM.

Take `O=C(Nc1cccc(Cl)c1)N1CCc2[nH]nc(C3CCC(O)C3)c2C1` (stereo not drawn) [Compound 742, N-(3-chlorophenyl)-3-(3-hydroxycyclopentyl)-1,4,6,7-tetrahydropyrazolo[4,3-c] pyridine-5-carboxamide]: the EC50 was in the range of 100 to 500 nM. For `O=C(Nc1cccc(Cl)c1)N1CCc2[nH]nc(C3=CC(F)CC3)c2C1` (stereo not drawn) [Compound 744, N-(3-chlorophenyl)-3-(3-fluorocyclopenten-1-yl)-1,4,6,7-tetrahydropyrazolo[4,3-c]pyridine-5-carboxamide] the value was 10 to 100 nM. For `O=C(Nc1ccnc(Cl)c1F)N1CCc2[nH]nc(C34CCCC3C4)c2C1` (stereo not drawn) [Compound 782], the 50% effective concentration (EC50) fell in the range of 10 to 100 nM. The value for `Cc1cccc(NC(=O)N2CCc3[nH]nc(C45CCCC4C5)c3C2)c1` (stereo not drawn) [Compound 783] was 10 to 100 nM; that for `O=C(Nc1cccc(Br)c1F)N1CCc2[nH]nc(C34CCCC3C4)c2C1` (stereo not drawn) [Compound 784] was 10 to 100 nM; that for `O=C(Nc1cccc(Br)c1)N1CCc2[nH]nc(C34CCCC3C4)c2C1` (stereo not drawn) [Compound 785] was 10 to 100 nM. For `N#Cc1cccc(NC(=O)N2CCc3[nH]nc(C45CCCC4C5)c3C2)c1F` (stereo not drawn) [Compound 786] the value was 10 to 100 nM; for `O=C(Nc1ccc(F)c(Cl)c1)N1CCc2[nH]nc(C34CCCC3C4)c2C1` (stereo not drawn) [Compound 787], 10 to 100 nM.

`Cc1cc(NC(=O)N2CCc3[nH]nc(C45CCCC4C5)c3C2)ccc1F` (stereo not drawn) [Compound 788]: the EC50 was 10 to 100 nM. The value for `O=C(Nc1ccc(F)c(Br)c1)N1CCc2[nH]nc(C34CCCC3C4)c2C1` (stereo not drawn) [Compound 789] was 10 to 100 nM; that for `N#Cc1cc(NC(=O)N2CCc3[nH]nc(C45CCCC4C5)c3C2)ccc1F` (stereo not drawn) [Compound 790] was 10 to 100 nM. The value for `O=C(Nc1ccnc(Br)c1F)N1CCc2[nH]nc(C34CCCC3C4)c2C1` (stereo not drawn) [Compound 791] was 10 to 100 nM; that for `O=C(Nc1ccc(F)c(F)c1)N1CCc2[nH]nc(C34CCCC3C4)c2C1` (stereo not drawn) [Compound 792] was 100 to 500 nM.

With `O=C(Nc1cccc(Cl)c1)N1CCc2[nH]nc(C3CCCO3)c2C1` (stereo not drawn) [Compound 861, N-(3-chlorophenyl)-3-tetrahydrofuran-2-yl-1,4,6,7-tetrahydropyrazolo[4,3-c]pyridine-5-carboxamide], the EC50 was in the range of 10 to 100 nM.
